# Measured values from BindingDB's records for doi:10.1021/acs.jmedchem.6b01196 (National Institute of Biological Sciences, 2017).
# Experiment: Inhibition of RIP1 in human HT-29 cells assessed as reduction in TNFalpha/z-VAD-FMK-induced necrosis after 24 hrs by Cell Titer-Glo luminescent cell viability assay
row,SMILES,EC50 [nM]
1,CCC(C)(C)C(=O)N(C)Cc1ccco1,628
2,CCC(C)(C)C(=O)N(C)Cc1cc(C)c(C)s1,1310
3,CCC(C)(C)C(=O)N(O)Cc1cc(F)c(F)c(F)c1,49
4,CCC(C)(C)C(=O)N(C)Cc1sccc1C,2530
5,CN(Cc1cc(F)cc(F)c1F)C(=O)C1(C)CC1,> 10000
6,CCC(C)(C)C(=O)NC1(c2ccccc2)CC1,> 5000
7,CCC(C)(C)C(=O)N(C)Cc1c(F)cc(F)cc1F,1250
8,CN(Cc1cc(F)cc(F)c1F)C(=O)C(C)(C)CO,> 3000
9,CCC(C)(C)C(=O)N(C)Cc1ccncc1,> 10000
10,CCC(C)(C)C(=O)NC(CO)c1ccccc1 (stereo not given),1080
11,CCC(C)(C)C(=O)NCc1ccccc1,4100
12,CCC(C)(C)C(=O)NC(C)c1ccccc1 (stereo not given),> 10000
13,CCC(C)(C)C(=O)N(C)Cc1cccc(O)c1,> 3000
14,CC1CCCCN1C(=O)N(C)Cc1cc(F)cc(F)c1F (stereo not given),> 3000
15,CN(Cc1cc(F)cc(F)c1F)C(=O)C1(C)CCCCC1,490
16,CCC(C)(C)C(=O)N(C)Cc1ccccc1Cl,> 10000
17,CC(C)N(C)C(=O)N(C)Cc1cc(F)cc(F)c1F,> 3000
18,CCC(C)(C)C(=O)N(O)Cc1ccccc1,28
19,CCC(C)(C)C(=O)N(C)Cc1ccc(C)s1,378
20,CCC(C)(C)C(=O)N(C)C(CO)c1ccccc1 (stereo not given),> 10000
21,CCC(C)(C)C(=O)NC(C)(C)c1ccccc1,> 10000
22,CCC(C)(C)C(=O)NCc1ccccc1F,898
23,CCC(C)(C)C(=O)N(C)Cc1cccnc1,1740
24,CCC(C)(C)C(=O)N(C)Cc1ccc(F)cc1F,627

row,SMILES,EC50 [nM]
1,CCC(C)(C)C(=O)N(C)Cc1ccn(C)n1,> 10000
2,CCC(C)(C)C(=O)N(O)Cc1cc(F)cc(F)c1F,74
3,CC(C)N(C(=O)N(C)Cc1cc(F)cc(F)c1F)C(C)C,> 3000
4,COC(C)(C)C(=O)N(C)Cc1cc(F)cc(F)c1F,> 10000
5,CCC(C)(C)C(=O)N(C)Cc1cccs1,221
6,CN(Cc1cc(F)cc(F)c1F)C(=O)C1(C(F)(F)F)CCC1,656
7,CCC(C)(C)C(=O)N(C)C(C)(C)c1ccccc1,> 10000
8,CCC(C)(C)C(=O)N(O)Cc1ccc(F)cc1,64
9,CCC(C)(C)C(=O)NCc1cccc(Br)c1,> 10000
10,CCC(C)(C)C(=O)N(C)Cc1cc(F)ccc1F,36
11,CCC(C)(C)C(=O)N(C)Cc1ccc(F)cc1,815
12,CC1CCCC(C)N1C(=O)N(C)Cc1cc(F)cc(F)c1F (stereo not given),1530
13,CCC(C)(C)C(=O)N(C)Cc1cccc(Br)c1,1230
14,CCN(Cc1ccccc1F)C(=O)C(C)(C)CC,> 10000
15,CCC(C)(C)C(=O)N(O)Cc1ccc(F)c(F)c1,56
16,CCC(C)(C)C(=O)N(C)Cc1ccccc1,457
17,CCC(C)(C)C(=O)N(C)Cc1cccc(F)c1,72
18,CN(Cc1cc(F)cc(F)c1F)C(=O)C1(C(F)(F)F)CCCC1,1230
19,CCC(C)(C)C(=O)N(O)Cc1ccc(F)cc1F,198
20,CCC(C)(C)C(=O)N(C)Cc1cnc(C)s1,> 10000
21,CCC(C)(C)C(=O)N(C)C(C)c1ccccc1 (stereo not given),> 10000
22,CCC(C)(C)C(=O)N(O)Cc1ccc(F)c(F)c1F,262
23,CN(Cc1cc(F)cc(F)c1F)C(=O)C(C)(C)C,98
24,CN(Cc1cc(F)cc(F)c1F)C(=O)C1CCC1,8240

# Experiment: as above
# Remark: another data set of the same source
row,SMILES,EC50 [nM]
1,CCC(C)(C)C(=O)N(C)Cc1ccccc1F,125
2,CCC(C)(C)C(=O)N(C)Cc1ccncc1F,> 10000
3,CCC(C)(C)C(=O)NCc1ccccc1Br,8560
4,CCC(C)(C)C(=O)N(C)Cc1cccc(Cl)c1,628
5,CCC(C)(C)C(=O)N(C)Cc1cccc(F)c1F,58
6,CCC(C)(C)C(=O)N(C)Cc1cc(F)cc(F)c1F,12

# Experiment: Inhibition of RIP1 in mouse L929 cells assessed as reduction in TNFalpha/z-VAD-FMK-induced necrosis after 6 hrs by Cell Titer-Glo luminescent cell viability assay
row,SMILES,EC50 [nM]
1,CCC(C)(C)C(=O)N(O)Cc1ccccc1,27
